Measurements: the NIST ThermoML archive (doi:10.1016/j.jct.2004.09.017)

Key:
[1] = relative permittivity at various frequencies (dimensionless); conditions: 298.2 K; 101.3 kPa; Liquid; Frequency=0.01 MHz; Wayne Kerr model 6425B Digibridge
[2] = refractive index (Na D-line) (dimensionless); conditions: 298.2 K; 101.33 kPa; Liquid
[3] = refractive index (Na D-line) (dimensionless); xn = mol fraction of the nth substance listed; conditions: 298.2 K, 101.3 kPa, Liquid
[4] = relative permittivity at various frequencies (dimensionless); xn = mol fraction of the nth substance listed; conditions: 298.2 K, 101.3 kPa, Liquid, Frequency=0.1 MHz, Wayne Kerr model 6425B Digibridge

CCCCC(CC)CO (configuration not stated) [2-ethyl-1-hexanol]
Conditions	refractive index	relative permittivity
[1]	–	7.354
[2]	1.4316	–

CCCCC(CC)CO (configuration not stated) [2-ethyl-1-hexanol] + CC(C)(C)O
Conditions	refractive index, [3]	relative permittivity, [4]
x2 = 0	1.4316	7.354
x2 = 0.05	1.4304	7.487
x2 = 0.07	1.4298	7.598
x2 = 0.09	1.429	7.653
x2 = 0.1	1.4287	7.685
x2 = 0.2	1.427	8.057
x2 = 0.3	1.4235	8.506
x2 = 0.4	1.42	8.933
x2 = 0.5	1.4163	9.398
x2 = 0.6	1.4117	9.952

CCCCC(CC)CO (configuration not stated) [2-ethyl-1-hexanol] + CCCCO
Conditions	refractive index, [3]	relative permittivity, [4]
x2 = 0	1.4316	7.354
x2 = 0.1	1.4291	8.21
x2 = 0.15	1.4278	8.682
x2 = 0.3	1.4238	10.48
x2 = 0.42	1.4214	11.42
x2 = 0.53	1.4182	12.01
x2 = 0.63	1.415	12.9
x2 = 0.72	1.412	14.34
x2 = 0.8	1.4088	15.21
x2 = 0.9	1.4036	16.41

CCCCC(CC)CO (configuration not stated) [2-ethyl-1-hexanol] + CCO
Conditions	refractive index, [3]	relative permittivity, [4]
x2 = 0	1.4316	7.354
x2 = 0.12	1.4261	8.086
x2 = 0.23	1.4232	8.999
x2 = 0.32	1.4194	10.192
x2 = 0.4	1.4162	11.099
x2 = 0.47	1.4123	12.08
x2 = 0.53	1.4097	12.744
x2 = 0.64	1.4015	14.496
x2 = 0.7	1.3971	15.885
x2 = 0.82	1.386	18.259

CC(C)(C)O [2-methylpropan-2-ol]
Conditions	refractive index	relative permittivity
[1]	–	12.23
[2]	1.3864	–

CC(C)(C)O [2-methylpropan-2-ol] + C1CCCCC1
Conditions	refractive index, [3]	relative permittivity, [4]
x1 = 0.07	1.4241	2.051
x1 = 0.1	1.4226	2.058
x1 = 0.2	1.4179	2.089
x1 = 0.3	1.4138	2.308
x1 = 0.4	1.41	2.586
x1 = 0.5	1.4056	3.096
x1 = 0.6	1.4007	3.88
x1 = 0.8	1.3928	6.422

CC(C)(C)O [2-methylpropan-2-ol] + CCCCC(CC)CO
x1 = 1
Conditions	refractive index	relative permittivity
[3]	1.3864	–
[4]	–	12.23

CCCCO [butan-1-ol]
Conditions	refractive index	relative permittivity
[1]	–	17.5
[2]	1.3988	–

CCCCO [butan-1-ol] + CCCCC(CC)CO
x1 = 1
Conditions	refractive index	relative permittivity
[3]	1.3988	–
[4]	–	17.5

C1CCCCC1 [cyclohexane] + CCCCO
Conditions	refractive index, [3]	relative permittivity, [4]
x2 = 0.05	1.4206	2.439
x2 = 0.1	1.4191	2.683
x2 = 0.2	1.4162	3.112
x2 = 0.3	1.4132	3.952
x2 = 0.4	1.4109	4.888
x2 = 0.5	1.4085	6.713
x2 = 0.6	1.4061	8.451
x2 = 0.72	1.4035	10.848

C1CCCCC1 [cyclohexane] + CCO
Conditions	refractive index, [3]	relative permittivity, [4]
x2 = 0.1	1.4235	2.155
x2 = 0.24	1.4179	2.571
x2 = 0.42	1.4103	4.223
x2 = 0.55	1.4032	6.462
x2 = 0.66	1.3953	8.974
x2 = 0.74	1.3887	11.249
x2 = 0.81	1.3813	13.878
x2 = 0.9	1.3733	17.89

CCO [ethanol]
Conditions	refractive index	relative permittivity
[1]	–	23.646
[2]	1.3592	–

CCO [ethanol] + CCCCC(CC)CO
x1 = 1
Conditions	refractive index	relative permittivity
[3]	1.3592	–
[4]	–	23.646
